Measured values reported in US20230159510A1, “NOVEL PRMT5 INHIBITORS” (AMGEN INC., priority 2020, published 2023).
Read-outs that look alike come from different tables or passages of the source.

Experiments:
[1] = tested on: HCT116 MTAP null cells; experiment: HCT116 proliferation assay, MTAP null cells (CellTiter-Glo, 6 days); type: cell-based; conditions: 144 h, read-out: Protif_ HCT116-MTAP null IC50
Outline: (§1)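 Cells were plated in RPMI 1640 with 10% fetal bovine serum and left overnight at 37° C and 5% CO2. Compound was then added as an 8- or 9-point 1:3 dilution series from a top concentration of 1 or 10 µM, alongside a DMSO-only control. Viability was read by luminescence.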

[2] = tested on: HCT116 WT cells; experiment: HCT116 proliferation assay, WT cells (CellTiter-Glo, 6 days); type: cell-based; conditions: Homo sapiens, HCT-116, 144 h, read-out: Prolif_HCT116-WT IC50
Outline: as §1

[3] = molecular target: PRMT5/MEP50 (Homo sapiens, UniProt O14744); experiment: MTase-Glo methyl transferase assay, Method A (Histone H4 peptide, 1 µM MTA, 24 h pre-incubation); type: biochemical; set-up: made in house; conditions: read-out: PRMT5 MTase Glo Ki (nM, Meth. A)
PRMT5/MEP50, sequence (O14744 whole entry): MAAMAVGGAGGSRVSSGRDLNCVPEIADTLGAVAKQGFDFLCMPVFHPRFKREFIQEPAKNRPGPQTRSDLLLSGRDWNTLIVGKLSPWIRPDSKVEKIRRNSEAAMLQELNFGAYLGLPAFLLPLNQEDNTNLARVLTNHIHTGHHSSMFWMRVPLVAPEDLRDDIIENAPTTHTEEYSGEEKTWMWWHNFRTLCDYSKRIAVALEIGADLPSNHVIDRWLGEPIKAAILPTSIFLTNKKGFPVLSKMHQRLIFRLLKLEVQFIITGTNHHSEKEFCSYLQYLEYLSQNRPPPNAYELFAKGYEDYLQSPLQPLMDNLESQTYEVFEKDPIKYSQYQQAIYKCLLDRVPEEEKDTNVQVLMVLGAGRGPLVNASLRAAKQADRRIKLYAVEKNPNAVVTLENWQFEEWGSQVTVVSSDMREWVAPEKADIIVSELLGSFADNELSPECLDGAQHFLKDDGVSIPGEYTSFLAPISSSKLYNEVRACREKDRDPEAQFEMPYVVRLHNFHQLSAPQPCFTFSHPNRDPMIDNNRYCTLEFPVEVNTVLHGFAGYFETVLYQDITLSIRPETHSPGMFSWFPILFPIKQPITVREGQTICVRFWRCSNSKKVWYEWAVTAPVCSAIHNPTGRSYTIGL
PRMT5/MEP50, sequence (Q9BQA1 whole entry partner): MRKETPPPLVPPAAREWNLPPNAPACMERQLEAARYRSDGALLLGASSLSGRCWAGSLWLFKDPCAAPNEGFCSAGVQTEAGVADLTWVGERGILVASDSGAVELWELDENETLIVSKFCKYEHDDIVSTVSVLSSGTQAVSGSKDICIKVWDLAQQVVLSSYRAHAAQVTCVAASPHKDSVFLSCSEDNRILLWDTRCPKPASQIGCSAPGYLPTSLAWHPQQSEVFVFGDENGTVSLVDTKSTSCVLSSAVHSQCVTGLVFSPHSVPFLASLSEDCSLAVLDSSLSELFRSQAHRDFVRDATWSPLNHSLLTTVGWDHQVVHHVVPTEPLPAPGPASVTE
Method: Method A: The PRMT5 inhibitory activity of test compounds was determined using the MTase-Glo™ assay (Promega), which monitors the product (S-adenosyl homocysteine or SAH) of methyltransferase reactions. The PRMT5 MTase-Glo assay was conducted in a 384-well white ProxiPlate (PerkinElmer) in a total volume of 12 µL. The PRMT5 enzymatic reaction (in 4 µL) contained 10 nM PRMT5/MEP50 (produced at Amgen), 5 µM S-adenosyl methionine (SAM, Promega), 1 µM Histone H4 (1-21)-Lys(Biotin) (Anaspec), 1 µM 5′-methylthioadenosine (MTA, Sigma) and two-fold serially diluted compounds in a reaction buffer of 50 mM Tris (pH 8.0), 50 mM NaCl, 0.01% Tween 20, 0.01% BSA, and 1 mM DTT. Test compounds were pre-incubated with PRMT5/MEP50, SAM, and MTA for 24 hours before addition of Histone H4 peptide to initiate the PRMT5 reaction. The reaction was allowed to proceed for 2 hours at room temperature and was then terminated by addition of 2 µL of 3X MTase-Glo™ Reagent (Promega) and 150 µM EPZ015666 (Sigma). After a 30-minute incubation at room temperature, 6 µL of MTase-Glo™ Detection Solution (Promega) was added and the plate was incubated at room temperature for an additional 30 minutes. The light signal corresponding to the amount of SAH produced by the PRMT5 reaction was subsequently measured using an Envision multimode reader (PerkinElmer). IC50 and KI values were obtained by analyzing dose-response curves using Genedata Screener (Genedata).

| Compound | IC50 ([1]; HCT116-MTAP null) [nM] | IC50 [2] [nM] | Ki [3] [nM] | IC50 [1] [nM] |
| --- | --- | --- | --- | --- |
| C[C@H](c1ncccn1)N(Cc1ccc(C(F)(F)F)nn1)C(=O)c1cnc2nc(N)c(Br)cc2c1 (single isomer, unassigned) [Example 444] | 327 | > 10000 | 0.15 | – |
| C[C@H](c1ncccn1)N(Cc1ccc(C(F)(F)F)nn1)C(=O)c1ccc2nc(N)c(Cl)cc2c1 (single isomer, unassigned) [Example 445] | 549 | > 10000 | 0.53 | – |
| Cc1cc2cc(C(=O)N(Cc3ccc4ccccc4n3)[C@H](C)c3ncccn3)ccc2nc1N (single isomer, unassigned) [Example 446] | 45 | 851 | 0.04 | – |
| Cc1cc2cc(C(=O)N(Cc3cnc4ccccc4c3)[C@H](C)c3ncccn3)ccc2nc1N (single isomer, unassigned) [Example 447] | 673 | > 10000 | 5.51 | – |
| Cc1cc2cc(C(=O)N(Cc3ccc(Br)cn3)[C@@H]3CCCN(C)C3=O)ccc2nc1N (single isomer, unassigned) [Example 448] | 238 | 5230 | 0.32 | – |
| Cc1cc2cc(C(=O)N(Cc3cnc(C(F)(F)F)cn3)[C@H](C)c3ncccn3)ccc2nc1N (single isomer, unassigned) [Example 449] | 168 | 5900 | 0.27 | – |
| Cc1cc2cc(C(=O)N(Cc3ccc(Br)nn3)[C@H](C)c3ncccn3)ccc2nc1N (single isomer, unassigned) [Example 450] | 45 | 2020 | 0.13 | – |
| Cc1cc2cc(C(=O)N(Cc3ccc(C(F)(F)F)cn3)[C@@H]3CCOc4ccc(F)nc43)ccc2nc1N (single isomer, unassigned) [Example 451] | 13 | 232 | 0.02 | – |
| Cc1cc2cc(C(=O)N(Cc3ccc(C(F)(F)F)cn3)[C@@H](c3ncccn3)C3CC3)ccc2nc1N (single isomer, unassigned) [Example 452] | 22 | 480 | 0.06 | – |
| CO[C@H](CN(Cc1ccc(C(F)(F)F)cn1)C(=O)c1ccc2nc(N)c(C)cc2c1)C(F)(F)F (single isomer, unassigned) [Example 453] | 65 | 1720 | 0.06 | – |
| CO[C@@H](CN(Cc1ccc(C(F)(F)F)cn1)C(=O)c1cnc2nc(N)c(Br)cc2c1)C(F)(F)F (single isomer, unassigned) [Example 454] | 252 | 3940 | 0.15 | – |
| Cc1cc2cc(C(=O)N(Cc3ccc(C(F)F)cn3)[C@H](C)c3ncc(F)cn3)ccc2nc1N (single isomer, unassigned) [Example 455] | 100 | 2940 | 0.16 | – |
| Cc1cc2cc(C(=O)N(Cc3ccc(C(F)(F)F)cn3)[C@@H]3CCOc4cccnc43)ccc2nc1N (single isomer, unassigned) [Example 456] | 39 | 816 | 0.3 | – |
| Cc1cc2cc(C(=O)N(Cc3ccc(C(F)(F)F)cn3)C[C@@H](C)C(F)(F)F)ccc2nc1N (single isomer, unassigned) [Example 457] | – | > 10000 | 0.78 | 717 |
| Cc1cc2cc(C(=O)N(Cc3ccc(C(F)(F)F)cn3)[C@@H]3CCOc4ncccc43)ccc2nc1N (single isomer, unassigned) [Example 459] | 78 | 2340 | 0.25 | – |
| Cc1cc2cc(C(=O)N(Cc3ccc(C(F)(F)F)cn3)[C@@H]3CCCN(C)C3=O)ccc2nc1N (single isomer, unassigned) [Example 460] | 155 | 7850 | 1.82 | – |
| Cc1cc2cc(C(=O)N(Cc3ccc(C(F)(F)F)cn3)[C@@H]3CCCNC3=O)ccc2nc1N (single isomer, unassigned) [Example 461] | 322 | 7780 | 1.23 | – |
| Cc1cc2cc(C(=O)N(Cc3ccc(C(F)(F)F)cn3)[C@@H]3CCCN(C4CC4)C3=O)ccc2nc1N (single isomer, unassigned) [Example 462] | 349 | > 10000 | 0.29 | – |
| Cc1cc2cc(C(=O)N(Cc3ccc(C(F)(F)F)cn3)[C@@H]3CCCn4ncnc43)ccc2nc1N (single isomer, unassigned) [Example 464] | 71 | 1510 | 0.1 | – |
| Cc1cc2cc(C(=O)N(Cc3ccc(C(F)(F)F)cn3)[C@@H]3CCCC(F)(F)[C@@H]3O)ccc2nc1N (single isomer, unassigned) [Example 466] | 269 | 4270 | 0.13 | – |
| Nc1nc2ncc(C(=O)N(Cc3ccc(C(F)(F)F)cn3)[C@@H]3CCCc4nccnc43)cc2cc1Br (single isomer, unassigned) [Example 467] | 28 | 248 | 0.21 | – |

Further lines, with some results ahead:

| IC50 ([1]; HCT116-MTAP null) [nM] | IC50 [2] [nM] | Ki [3] [nM] | Compound | IC50 [1] [nM] |
| --- | --- | --- | --- | --- |
| 34 | 853 | < 0.1 | Cc1cc2cc(C(=O)N(Cc3ccc(Cl)c(C)n3)[C@H](C)c3ncccn3)ccc2nc1N (single isomer, unassigned) [Example 468] | – |
| 33 | 592 | 0.03 | COc1nc(C(F)(F)F)ccc1CN(C(=O)c1ccc2nc(N)c(C)cc2c1)[C@H](C)c1ncccn1 (single isomer, unassigned) [Example 469] | – |
| 93 | 2210 | 0.09 | Cc1nc(CN(C(=O)c2cnc3nc(N)c(Br)cc3c2)[C@H](C)c2ncccn2)ccc1Br (single isomer, unassigned) [Example 470] | – |
| 101 | 3110 | 0.11 | Cc1cc2cc(C(=O)N(Cc3ccc(C(F)(F)F)cn3)[C@@H]3COCC[C@@H]3O)ccc2nc1N (single isomer, unassigned) [Example 471] | – |
| 889 | > 10000 | 1.04 | Cc1cc2cc(C(=O)N(CC(C)C)[C@H](C)c3ccc(C(F)(F)F)cn3)ccc2nc1N (single isomer, unassigned) [Example 472] | – |
| 302 | 5110 | 0.17 | Cc1cc2cc(C(=O)N(Cc3ccc(C#N)cn3)[C@H](C)c3ccccn3)ccc2nc1N (single isomer, unassigned) [Example 473] | – |
| 88 | 3270 | 0.04 | Cc1cc2cc(C(=O)N(Cc3ncc(Br)cc3C)[C@H](C)c3ncccn3)ccc2nc1N (single isomer, unassigned) [Example 474] | – |
| 268 | 4460 | 0.07 | Cc1cc2cc(C(=O)N(Cc3ccc(C#N)cc3)[C@H](C)c3ncccn3)ccc2nc1N (single isomer, unassigned) [Example 475] | – |
| 195 | 5640 | 0.11 | Cc1cc2cc(C(=O)N(Cc3ccc(C(F)(F)F)nc3)[C@H](C)c3ncccn3)ccc2nc1N (single isomer, unassigned) [Example 477] | – |
| 60 | 1220 | 0.09 | COc1ccc(CN(C(=O)c2cc3cc(C)c(N)nc3cc2F)[C@H](C)c2ncccn2)nn1 (single isomer, unassigned) [Example 479] | – |
| 369 | 1460 | 1.49 | COc1ccc(CN(C(=O)c2cc3cc(C)c(N)nc3cc2F)[C@@H](C)c2ncccn2)nn1 (single isomer, unassigned) [Example 480] | – |
| 225 | 4450 | 0.18 | Cc1cc2cc(C(=O)N(Cc3ccc(C(F)(F)F)cn3)[C@H](C)c3ncc(F)cn3)cnc2nc1N (single isomer, unassigned) [Example 481] | – |
| 106 | 4320 | 0.1 | Cc1cc2cc(C(=O)N(Cc3ccc(C(F)(F)F)cn3)[C@H](C)c3cnccn3)ccc2nc1N (single isomer, unassigned) [Example 482] | – |
| 515 | > 10000 | 1.02 | Cc1cc2cc(C(=O)N(Cc3cnc(C(F)(F)F)cn3)[C@H](C)c3ccc(F)cn3)ccc2nc1N (single isomer, unassigned) [Example 483] | – |
| 27 | – | 0.06 | CC[C@H](c1ncccn1)N(Cc1ccc(C(F)(F)F)cn1)C(=O)c1ccc2nc(N)c(C)cc2c1 (single isomer, unassigned) [Example 489] | – |
| 73 | – | 0.07 | COc1ccc(CN(C(=O)c2ccc3nc(N)c(C)cc3c2)[C@H](C)c2ncccn2)nn1 (single isomer, unassigned) [Example 517, 2-amino-N-((6-methoxy-3-pyridazinyl)methyl)-3-methyl-N-((IR)-1-(2-pyrimidinyl)ethyl)-6-quinolinecarboxamide] | – |
